Results reported in the OligoGym collection.
HELM strings list units from the 5' end as sugar, base in round brackets, then linkage (d deoxyribose, r ribose, m 2'-O-methyl, p phosphodiester). Strings are as the collection lists them; they lack the last nucleoside at the 3' end of the tested compound. [moe] = 2'-O-(2-methoxyethyl) (MOE); [sp] = phosphorothioate linkage; [m5C] = 5-methylcytosine

The substances below were run against ATXN3 (assay: mouse, dose not given). Details: ASO.
With “RNA1{[moe](A)[sp].[moe]([m5C])p.[moe](T)p.[moe](G)p.[moe](G)[sp].d(T)[sp].d([m5C])[sp].d(A)[sp].d(G)[sp].d(T)[sp].d(T)[sp].d(T)[sp].d([m5C])[sp].d([m5C])[sp].d(T)[sp].[moe](A)p.[moe](A)p.[moe](T)[sp].[moe](T)}$$$$ (last 3' nucleoside missing)” the 3 h FOB score was 0 score 0-7. For “RNA1{[moe](A)[sp].[moe]([m5C])p.[moe](T)p.[moe](G)p.[moe]([m5C])[sp].d(A)[sp].d([m5C])[sp].d(A)[sp].d([m5C])[sp].d(T)[sp].d(T)[sp].d(T)[sp].d([m5C])[sp].d([m5C])[sp].d(T)[sp].[moe]([m5C])p.[moe]([m5C])p.[moe](T)[sp].[moe]([m5C])}$$$$ (last 3' nucleoside missing)”, the 3 h FOB score was 0 score 0-7. In the case of “RNA1{[moe](A)[sp].[moe]([m5C])p.[moe]([m5C])p.[moe](A)p.[moe](T)[sp].d([m5C])[sp].d(T)[sp].d(T)[sp].d(T)[sp].d(G)[sp].d(A)[sp].d([m5C])[sp].d(A)[sp].d(A)[sp].d(G)[sp].[moe]([m5C])p.[moe](T)p.[moe](A)[sp].[moe](T)}$$$$ (last 3' nucleoside missing)”, the 3 h FOB score is reported as 2.75 score 0-7. In the case of “RNA1{[moe](A)[sp].[moe]([m5C])p.[moe]([m5C])p.[moe]([m5C])p.[moe](A)[sp].d(A)[sp].d(T)[sp].d(A)[sp].d(A)[sp].d(T)[sp].d([m5C])[sp].d(T)[sp].d(G)[sp].d(A)[sp].d([m5C])[sp].[moe](A)p.[moe](T)p.[moe]([m5C])[sp].[moe]([m5C])}$$$$ (last 3' nucleoside missing)”, the 3 h FOB score is reported as 0 score 0-7. “RNA1{[moe](G)[sp].[moe](G)p.[moe](T)p.[moe](T)p.[moe](T)[sp].d(T)[sp].d([m5C])[sp].d(T)[sp].d([m5C])[sp].d(A)[sp].d(T)[sp].d(T)[sp].d(T)[sp].d(T)[sp].d(T)[sp].[moe](A)p.[moe](T)p.[moe](A)[sp].[moe](T)}$$$$ (last 3' nucleoside missing)” gave a 3 h FOB score of 2.25 score 0-7. “RNA1{[moe](G)[sp].[moe](G)p.[moe](T)p.[moe]([m5C])p.[moe](A)p.[moe](G)p.d(T)[sp].d(T)[sp].d(T)[sp].d([m5C])[sp].d([m5C])[sp].d(T)[sp].d(A)[sp].d(A)[sp].d(T)[sp].d(T)[sp].[moe](T)p.[moe](T)[sp].[moe](A)}$$$$ (last 3' nucleoside missing)” was tested, and the 3 h FOB score was 1 score 0-7. Substance “RNA1{[moe](G)[sp].[moe](G)p.[moe]([m5C])p.[moe](A)p.[moe]([m5C])p.[moe](A)p.d(T)[sp].d(T)[sp].d(T)[sp].d(T)[sp].d(T)[sp].d(T)[sp].d(A)[sp].d(T)[sp].d(A)[sp].d(G)[sp].[moe](A)p.[moe](G)[sp].[moe](T)}$$$$ (last 3' nucleoside missing)” has a 3 h FOB score of 1 score 0-7. Substance “RNA1{[moe](G)[sp].[moe](G)p.[moe]([m5C])p.[moe](A)p.[moe]([m5C])p.d(A)[sp].d(T)[sp].d(T)[sp].d(T)[sp].d(T)[sp].d(T)[sp].d(T)[sp].d(A)[sp].d(T)[sp].d(A)[sp].[moe](G)p.[moe](A)p.[moe](G)[sp].[moe](T)}$$$$ (last 3' nucleoside missing)” has a 3 h FOB score of 1.25 score 0-7. “RNA1{[moe](G)[sp].[moe](T)p.[moe](G)p.[moe](A)p.[moe]([m5C])[sp].d(T)[sp].d(A)[sp].d(A)[sp].d([m5C])[sp].d(A)[sp].d(G)[sp].d(T)[sp].d(A)[sp].d(T)[sp].d(G)[sp].[moe](T)p.[moe](T)p.[moe](T)[sp].[moe](T)}$$$$ (last 3' nucleoside missing)” showed a 3 h FOB score of 2.25 score 0-7. Substance “RNA1{[moe](G)[sp].[moe](T)p.[moe](G)p.[moe]([m5C])p.[moe](T)[sp].d(A)[sp].d(T)[sp].d(A)[sp].d(A)[sp].d(T)[sp].d(T)[sp].d([m5C])[sp].d(T)[sp].d(T)[sp].d(G)[sp].[moe]([m5C])p.[moe](T)p.[moe](T)[sp].[moe]([m5C])}$$$$ (last 3' nucleoside missing)” has a 3 h FOB score of 1.25 score 0-7. “RNA1{[moe](G)[sp].[moe](T)p.[moe](G)p.[moe]([m5C])p.[moe](T)[sp].d(T)[sp].d(T)[sp].d(T)[sp].d([m5C])[sp].d(A)[sp].d(T)[sp].d(A)[sp].d([m5C])[sp].d([m5C])[sp].d(A)[sp].[moe](G)p.[moe](G)p.[moe](T)[sp].[moe]([m5C])}$$$$ (last 3' nucleoside missing)” showed a 3 h FOB score of 1 score 0-7. Substance “RNA1{[moe](G)[sp].[moe](T)p.[moe](G)p.[moe]([m5C])p.[moe](T)p.d(T)[sp].d(T)[sp].d(T)[sp].d([m5C])[sp].d(A)[sp].d(T)[sp].d(A)[sp].d([m5C])[sp].d([m5C])[sp].d(A)[sp].[moe](G)p.[moe](G)p.[moe](T)[sp].[moe]([m5C])}$$$$ (last 3' nucleoside missing)” has a 3 h FOB score of 1.5 score 0-7. Work on “RNA1{[moe](G)[sp].[moe](T)p.[moe](T)[sp].[moe](A)[sp].[moe](A)[sp].d(T)[sp].d(A)[sp].d([m5C])[sp].d(T)[sp].d(T)[sp].d(T)[sp].d(T)[sp].d(T)[sp].d([m5C])[sp].d([m5C])[sp].[moe](A)[sp].[moe](G)p.[moe]([m5C])[sp].[moe]([m5C])}$$$$ (last 3' nucleoside missing)” yielded a 3 h FOB score of 1 score 0-7. “RNA1{[moe](G)[sp].[moe](T)p.[moe](T)p.[moe](A)p.[moe](A)p.[moe](T)p.d(A)[sp].d([m5C])[sp].d(T)[sp].d(T)[sp].d(T)[sp].d(T)[sp].d(T)[sp].d([m5C])[sp].d([m5C])[sp].d(A)[sp].[moe](G)p.[moe]([m5C])[sp].[moe]([m5C])}$$$$ (last 3' nucleoside missing)” was tested, and the 3 h FOB score was 1 score 0-7. “RNA1{[moe](G)[sp].[moe](T)p.[moe](T)p.[moe](A)p.[moe](A)p.d(T)[sp].d(A)[sp].d([m5C])[sp].d(T)[sp].d(T)[sp].d(T)[sp].d(T)[sp].d(T)[sp].d([m5C])[sp].d([m5C])[sp].[moe](A)p.[moe](G)p.[moe]([m5C])[sp].[moe]([m5C])}$$$$ (last 3' nucleoside missing)” showed a 3 h FOB score of 1 score 0-7. Substance “RNA1{[moe](G)[sp].[moe](T)p.[moe](T)p.[moe]([m5C])p.[moe](A)p.[moe](T)p.d(A)[sp].d(T)[sp].d([m5C])[sp].d([m5C])[sp].d(T)[sp].d(T)[sp].d(T)[sp].d(A)[sp].d(A)[sp].d([m5C])[sp].[moe]([m5C])p.[moe]([m5C])[sp].[moe](A)}$$$$ (last 3' nucleoside missing)” has a 3 h FOB score of 0.25 score 0-7. “RNA1{[moe](G)[sp].[moe](T)p.[moe](T)p.[moe]([m5C])p.[moe]([m5C])p.d(A)[sp].d(G)[sp].d(A)[sp].d(T)[sp].d([m5C])[sp].d(A)[sp].d([m5C])[sp].d([m5C])[sp].d(A)[sp].d(T)[sp].[moe]([m5C])p.[moe](T)p.[moe](T)[sp].[moe](T)}$$$$ (last 3' nucleoside missing)” gave a 3 h FOB score of 3.5 score 0-7. “RNA1{[moe](G)[sp].[moe]([m5C])[sp].[moe](A)p.[moe]([m5C])p.[moe]([m5C])[sp].d(A)[sp].d(T)[sp].d(A)[sp].d(T)[sp].d(A)[sp].d(T)[sp].d(A)[sp].d(T)[sp].d([m5C])[sp].d(T)[sp].[moe]([m5C])p.[moe](A)p.[moe](G)[sp].[moe](A)}$$$$ (last 3' nucleoside missing)” was tested, and the 3 h FOB score was 1 score 0-7. Substance “RNA1{[moe](G)[sp].[moe]([m5C])[sp].[moe](T)p.[moe]([m5C])p.[moe](A)[sp].d(T)[sp].d(T)[sp].d(T)[sp].d(A)[sp].d(T)[sp].d(T)[sp].d([m5C])[sp].d(T)[sp].d([m5C])[sp].d(A)[sp].[moe](A)p.[moe](G)p.[moe](T)[sp].[moe](A)}$$$$ (last 3' nucleoside missing)” has a 3 h FOB score of 1 score 0-7. “RNA1{[moe](G)[sp].[moe]([m5C])p.[moe](A)[sp].[moe]([m5C])[sp].[moe]([m5C])[sp].d(A)[sp].d(T)[sp].d(A)[sp].d(T)[sp].d(A)[sp].d(T)[sp].d(A)[sp].d(T)[sp].d([m5C])[sp].d(T)[sp].[moe]([m5C])[sp].[moe](A)p.[moe](G)[sp].[moe](A)}$$$$ (last 3' nucleoside missing)” showed a 3 h FOB score of 0 score 0-7. For “RNA1{[moe](G)[sp].[moe]([m5C])p.[moe](A)p.[moe](T)p.[moe](A)[sp].d(T)[sp].d(T)[sp].d(G)[sp].d(G)[sp].d(T)[sp].d(T)[sp].d(T)[sp].d(T)[sp].d([m5C])[sp].[moe](T)p.[moe]([m5C])p.[moe](A)[sp].[moe](T)}$$$$ (last 3' nucleoside missing)”, the 3 h FOB score was 5.5 score 0-7. “RNA1{[moe](G)[sp].[moe]([m5C])p.[moe](A)p.[moe](T)p.[moe](A)[sp].d(T)[sp].d(T)[sp].d(G)[sp].d(G)[sp].d(T)[sp].d(T)[sp].d(T)[sp].d(T)[sp].d([m5C])[sp].d(T)[sp].[moe]([m5C])p.[moe](A)p.[moe](T)p.[moe](T)}$$$$ (last 3' nucleoside missing)” gave a 3 h FOB score of 3 score 0-7. With “RNA1{[moe](G)[sp].[moe]([m5C])p.[moe](A)p.[moe](T)p.[moe](A)p.[moe](T)p.d(T)[sp].d(G)[sp].d(G)[sp].d(T)[sp].d(T)[sp].d(T)[sp].d(T)[sp].d([m5C])[sp].d(T)[sp].d([m5C])[sp].[moe](A)p.[moe](T)[sp].[moe](T)}$$$$ (last 3' nucleoside missing)” the 3 h FOB score was 3 score 0-7. With “RNA1{[moe](G)[sp].[moe]([m5C])p.[moe](A)p.[moe](T)p.[moe](A)p.d(T)[sp].d(T)[sp].d(G)[sp].d(G)[sp].d(T)[sp].d(T)[sp].d(T)[sp].d(T)[sp].d([m5C])[sp].d(T)[sp].[moe]([m5C])p.[moe](A)p.[moe](T)[sp].[moe](T)}$$$$ (last 3' nucleoside missing)” the 3 h FOB score was 2.5 score 0-7. With “RNA1{[moe](G)[sp].[moe]([m5C])p.[moe](A)p.[moe](T)p.[moe](A)p.d(T)[sp].d(T)[sp].d(G)[sp].d(G)[sp].d(T)[sp].d(T)[sp].d(T)[sp].d(T)[sp].d([m5C])[sp].d(T)[sp].[moe]([m5C])p.[moe](A)p.[moe](T)p.[moe](T)}$$$$ (last 3' nucleoside missing)” the 3 h FOB score was 3 score 0-7. “RNA1{[moe](G)[sp].[moe]([m5C])p.[moe](A)p.[moe]([m5C])p.[moe](A)p.[moe](T)p.d(T)[sp].d(T)[sp].d(T)[sp].d(T)[sp].d(T)[sp].d(A)[sp].d(T)[sp].d(A)[sp].d(G)[sp].d(A)[sp].[moe](G)p.[moe](T)[sp].[moe](T)}$$$$ (last 3' nucleoside missing)” gave a 3 h FOB score of 1 score 0-7.
